Experimental data published in patent US12583849B2, “KCNT1 inhibitors and methods of use” (Praxis Precision Medicines, Inc., priority 2020, dated 2026).

Target: T1, KCNT1 (KNa1.1, Slack) (Homo sapiens, UniProt Q5JUK3)
T1 construct: expressed in transfected cells; host or cells: HEK-TREX (tetracycline-inducible cell line)
T1 sequence (Q5JUK3 1-1230): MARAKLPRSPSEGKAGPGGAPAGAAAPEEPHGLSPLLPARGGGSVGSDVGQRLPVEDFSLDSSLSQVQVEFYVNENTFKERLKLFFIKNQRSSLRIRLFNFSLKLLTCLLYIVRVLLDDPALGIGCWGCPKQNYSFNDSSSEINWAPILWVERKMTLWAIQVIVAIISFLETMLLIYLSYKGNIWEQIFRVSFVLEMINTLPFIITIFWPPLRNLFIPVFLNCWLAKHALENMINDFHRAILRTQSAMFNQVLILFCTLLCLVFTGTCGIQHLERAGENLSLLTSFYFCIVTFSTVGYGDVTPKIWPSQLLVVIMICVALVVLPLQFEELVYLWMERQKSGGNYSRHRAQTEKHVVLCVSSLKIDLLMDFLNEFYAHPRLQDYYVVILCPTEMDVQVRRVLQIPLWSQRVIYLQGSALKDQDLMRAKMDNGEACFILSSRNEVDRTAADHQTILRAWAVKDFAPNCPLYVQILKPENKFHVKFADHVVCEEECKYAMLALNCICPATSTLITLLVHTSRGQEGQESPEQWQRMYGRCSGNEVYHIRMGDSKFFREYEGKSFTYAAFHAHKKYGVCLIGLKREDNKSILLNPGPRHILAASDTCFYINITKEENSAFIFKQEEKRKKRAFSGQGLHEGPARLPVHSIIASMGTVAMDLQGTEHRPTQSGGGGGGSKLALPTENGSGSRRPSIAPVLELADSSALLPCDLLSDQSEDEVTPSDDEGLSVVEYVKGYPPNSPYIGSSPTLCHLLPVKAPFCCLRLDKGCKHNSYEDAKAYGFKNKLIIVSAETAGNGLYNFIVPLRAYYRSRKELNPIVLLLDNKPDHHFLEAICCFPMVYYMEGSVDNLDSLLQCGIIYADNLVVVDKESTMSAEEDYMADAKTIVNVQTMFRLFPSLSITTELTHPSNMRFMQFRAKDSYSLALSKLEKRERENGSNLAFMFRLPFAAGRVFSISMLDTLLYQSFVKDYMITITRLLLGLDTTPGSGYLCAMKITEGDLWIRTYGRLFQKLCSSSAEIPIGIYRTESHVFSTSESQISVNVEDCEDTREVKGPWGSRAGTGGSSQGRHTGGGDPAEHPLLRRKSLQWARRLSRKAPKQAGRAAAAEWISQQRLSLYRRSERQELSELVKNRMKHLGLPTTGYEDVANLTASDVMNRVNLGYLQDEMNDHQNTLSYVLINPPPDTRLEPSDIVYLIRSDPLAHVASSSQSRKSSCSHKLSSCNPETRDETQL
Assay: KCNT1-WT-Basal Patch Clamp Assay
Assay type: cell-based
Conditions: tetracycline inducible cell line (HEK-TREX); SyncroPatch 384PE automated patch clamp, perforated patch mode, room temperature, step from -80 mV to 0 mV
Description: KCNT1-WT-Basal—Patch Clamp Assay
Inhibition of KCNT1 (KNa1.1, Slack) was evaluated using a tetracycline inducible cell line (HEK-TREX). Currents were recorded using the SyncroPatch 384PE automated, patch clamp system. Pulse generation and data collection were performed with PatchController384 V1.3.0 and DataController384 V1.2.1 (Nanion Technologies). The access resistance and apparent membrane capacitance were estimated using built-in protocols. Current were recorded in perforated patch mode (10 μM escin) from a population of cells. The cells were lifted, triturated, and resuspended at 800,000 cells/ml. The cells were allowed to recover in the cell hotel prior to experimentation. Currents were recorded at room temperature. The external solution contained the following (in mM): NaCl 105, NMDG 40, KCl 4, MgCl2 1, CaCl2 5 and HEPES 10 (pH=7.4, Osmolarity ˜300 mOsm). The extracellular solution was used as the wash, reference and compound delivery solution. The internal solution contained the following (in mM): NaCl 70, KF 70, KCl 10, EGTA 5, HEPES 5 and Escin 0.01 (pH=7.2, Osmolarity ˜295 mOsm). Escin is made at a 5 mM stock in water, aliquoted, and stored at −20° C. The compound plate was created at 2× concentrated in the extracellular solution. The compound was diluted to 1:2 when added to the recording well. The amount of DMSO in the extracellular solution was held constant at the level used for the highest tested concentration. A holding potential of −80 mV with a 100 ms step to 0 mV was used. Mean current was measured during the step to 0 mV. […] The average mean current from 3 sweeps was calculated and the % inhibition of each compound was calculated. The % Inhibition as a function of the compound concentration was fit with a Hill equation to derive IC50, slope, min and max parameters. If KCNT1 inhibition was less than 50% at the highest tested concentration or if an IC50 could not be calculated, then a percent inhibition was reported in place of the IC50.
In this table, “A” indicates IC50 of less than or equal to 1 μM; “B” indicates inhibition of between 1 μM to 20 μM; and “C” indicates inhibition of greater than or equal to 20 μM.

IC50 [nM]	Compound
≤ 1000	C[C@H](NC(=O)c1cccc(Cl)c1)c1nc(-c2ccnc(C3CCC3)c2)no1 [Compound I-100, (S)-3-chloro-N-(1-(3-(2-cyclobutylpyridin-4-yl)-1,2,4-oxadiazol-5-yl)ethyl) benzamide]
≤ 1000	CC(C)Oc1cc(-c2noc([C@H](C)NC(=O)N3CCCc4ccccc43)n2)ccn1 [II-3]
1000 to 20000	C[C@H](NC(=O)N1CCCCC1)c1nc(-c2ccnc(C(F)(F)F)c2)no1 [II-10]
≤ 1000	COc1cccc(C(=O)N[C@@H](C)c2nc(-c3ccnc(C4CC4)c3)no2)c1 [Compound I-79]
1000 to 20000	C[C@H](NC(=O)CC(C)(C)C)c1nc(-c2ccnc(C(F)(F)F)c2)no1 [III-3, (S)-3,3-dimethyl-N-(1-(3-(2-(trifluoromethyl)pyridin-4-yl)-1,2,4-oxadiazol-5-yl)ethyl)butanamide]
≤ 1000	C[C@H](NC(=O)c1cccc(OC(F)(F)F)c1)c1nc(-c2ccnc(C3CC3)c2)no1 [Compound I-103, (S)—N-(1-(3-(2-cyclopropylpyridin-4-yl)-1,2,4-oxadiazol-5-yl)ethyl)-3-(trifluoromethoxy)benzamide]
≤ 1000	C[C@H](NC(=O)C1CC2(CCC2)C1)c1nc(-c2ccnc(C(F)(F)F)c2)no1 [Compound I-76, N-[(1S)-1-[3-[2-(trifluoromethyl)-4-pyridyl]-1,2,4-oxadiazol-5-yl]ethyl]spiro[3.3]heptane-2-carboxamide]
≤ 1000	C[C@H](NC(=O)c1ccc(Cl)cc1Cl)c1nc(-c2ccnc(C3CC3)c2)no1 [Compound I-94, (S)-2,4-dichloro-N-(1-(3-(2-cyclopropylpyridin-4-yl)-1,2,4-oxadiazol-5-yl)ethyl)benzamide]
≥ 20000	C[C@H](NC(=O)C1CCC(O)CC1)c1nc(-c2ccnc(C(F)(F)F)c2)no1 (single isomer, unassigned) [Compound I-77]
1000 to 20000	C[C@H](NC(=O)c1nccn1C1CCC1)c1nc(-c2ccnc(C3CC3)c2)no1 [Compound I-104, (S)-1-cyclobutyl-N-(1-(3-(2-cyclopropylpyridin-4-yl)-1,2,4-oxadiazol-5-yl)ethyl)-1H-imidazole-2-carboxamide]
≤ 1000	C[C@H](NC(=O)N(C)c1ccccc1)c1nc(-c2ccnc(C(F)(F)F)c2)no1 [II-12]
≥ 20000	C[C@H](NC(=O)CN(C)C)c1nc(-c2ccnc(C(F)(F)F)c2)no1 [III-1, (S)-2-(dimethylamino)-N-(1-(3-(2-(trifluoromethyl)pyridin-4-yl)-1,2,4-oxadiazol-5-yl)ethyl)acetamide]
≤ 1000	CC(C)Oc1cc(-c2noc([C@H](C)NC(=O)N(C)C(C)(C)C)n2)ccn1 [II-5]
≤ 1000	CC(C)Oc1cc(-c2noc([C@H](C)NC(=O)N3CCCCC3)n2)ccn1 [II-2]
≤ 1000	C[C@H](NC(=O)N1CCCc2ccccc21)c1nc(-c2ccnc(C3CC3)c2)no1 [II-8]

Continued, molecule first:

Compound	IC50 [nM]
C[C@H](NC(=O)CN1CCCCC1)c1nc(-c2ccnc(C(F)(F)F)c2)no1 [Compound I-35, (S)-2-(piperidin-1-yl)-N-(1-(3-(2-(trifluoromethyl)pyridin-4-yl)-1,2,4-oxadiazol-5-yl)ethyl)acetamide]	≥ 20000
C[C@H](NC(=O)c1cc2ccc(C(F)(F)F)cc2s1)c1nc(-c2ccnc(C(F)(F)F)c2)no1 [Compound I-25, (S)-6-(trifluoromethyl)-N-(1-(3-(2-(trifluoromethyl)pyridin-4-yl)-1,2,4-oxadiazol-5-yl)ethyl)benzo[b]thiophene-2-carboxamide]	≤ 1000
C[C@H](NC(=O)[C@H]1CC[C@H](C)CC1)c1nc(-c2ccnc(C3CC3)c2)no1 [Compound I-29, (S)—N-(1-(3-(2-cyclopropylpyridin-4-yl)-1,2,4-oxadiazol-5-yl)ethyl)-4-methylcyclohexane-1-carboxamide]	≤ 1000
C[C@H](NC(=O)[C@@H](C)c1ccccc1)c1nc(-c2ccnc(C(F)(F)F)c2)no1 [Compound I-16, (S)-2-phenyl-N—((S)-1-(3-(2-(trifluoromethyl)pyridin-4-yl)-1,2,4-oxadiazol-5-yl)ethyl)propanamide]	≤ 1000
C[C@H](NC(=O)c1ccno1)c1nc(-c2ccnc(C(F)(F)F)c2)no1 [Compound I-23, (S)—N-(1-(3-(2-(trifluoromethyl)pyridin-4-yl)-1,2,4-oxadiazol-5-yl)ethyl)isoxazole-5-carboxamide]	≥ 20000
C[C@H](NC(=O)C1CCC(F)(F)CC1)c1nc(-c2ccnc(C(F)(F)F)c2)no1 [Compound I-3, (S)-4,4-difluoro-N-(1-(3-(2-(trifluoromethyl)pyridin-4-yl)-1,2,4-oxadiazol-5-yl)ethyl)cyclohexane-1-carboxamide]	≤ 1000
Cc1c(C(=O)NC(C)c2nc(-c3cccc(F)c3)no2)nc2ccccn12 (stereo not shown) [Compound I-49, N-[1-[3-(3-fluorophenyl)-1,2,4-oxadiazol-5-yl]ethyl]-3-methyl-imidazo[1,2-a]pyridine-2-carboxamide]	≥ 20000
Cc1oncc1C(=O)N[C@@H](C)c1nc(-c2ccnc(C(F)(F)F)c2)no1 [Compound I-21, (S)-5-methyl-N-(1-(3-(2-(trifluoromethyl)pyridin-4-yl)-1,2,4-oxadiazol-5-yl)ethyl)isoxazole-4-carboxamide]	1000 to 20000
Cc1ncc(C(=O)NC(C)c2nc(-c3cccc(F)c3)no2)c(C)n1 (stereo not shown) [Compound I-48, N-[1-[3-(3-fluorophenyl)-1,2,4-oxadiazol-5-yl]ethyl]-2,4-dimethyl-pyrimidine-5-carboxamide]	≥ 20000
C[C@H](NC(=O)[C@@H]1CCC(=O)N1)c1nc(-c2ccnc(C(F)(F)F)c2)no1 [Compound I-54, (S)-5-oxo-N—((S)-1-(3-(2-(trifluoromethyl)pyridin-4-yl)-1,2,4-oxadiazol-5-yl)ethyl)pyrrolidine-2-carboxamide]	≥ 20000
C[C@H](NC(=O)C1CCOCC1)c1nc(-c2ccnc(C(F)(F)F)c2)no1 [Compound I-12, (S)—N-(1-(3-(2-(trifluoromethyl)pyridin-4-yl)-1,2,4-oxadiazol-5-yl)ethyl)tetrahydro-2H-pyran-4-carboxamide]	≥ 20000
COC1CCC(C(=O)N[C@@H](C)c2nc(-c3ccnc(C(F)(F)F)c3)no2)CC1 (stereo partly drawn) [Compound I-69, (S)-4-methoxy-N-(1-(3-(2-(trifluoromethyl)pyridin-4-yl)-1,2,4-oxadiazol-5-yl)ethyl)cyclohexane-1-carboxamide]	1000 to 20000
C[C@H](NC(=O)c1nc(C(F)(F)F)cs1)c1nc(-c2ccnc(C(F)(F)F)c2)no1 [Compound I-5, (S)-4-(trifluoromethyl)-N-(1-(3-(2-(trifluoromethyl)pyridin-4-yl)-1,2,4-oxadiazol-5-yl)ethyl)thiazole-2-carboxamide]	≤ 1000
